US6908935B2, “Calcium receptor modulating agents” (Amgen Inc., priority 2002, dated 2005)
pEC50: −log10 of the molar value.

Molecular target: T1, human parathyroid cell Ca^2+ receptor (hPCaR) (Homo sapiens, UniProt P41180)
T1 construct: expressed in transfected cells
T1 sequence (P41180 20-1078): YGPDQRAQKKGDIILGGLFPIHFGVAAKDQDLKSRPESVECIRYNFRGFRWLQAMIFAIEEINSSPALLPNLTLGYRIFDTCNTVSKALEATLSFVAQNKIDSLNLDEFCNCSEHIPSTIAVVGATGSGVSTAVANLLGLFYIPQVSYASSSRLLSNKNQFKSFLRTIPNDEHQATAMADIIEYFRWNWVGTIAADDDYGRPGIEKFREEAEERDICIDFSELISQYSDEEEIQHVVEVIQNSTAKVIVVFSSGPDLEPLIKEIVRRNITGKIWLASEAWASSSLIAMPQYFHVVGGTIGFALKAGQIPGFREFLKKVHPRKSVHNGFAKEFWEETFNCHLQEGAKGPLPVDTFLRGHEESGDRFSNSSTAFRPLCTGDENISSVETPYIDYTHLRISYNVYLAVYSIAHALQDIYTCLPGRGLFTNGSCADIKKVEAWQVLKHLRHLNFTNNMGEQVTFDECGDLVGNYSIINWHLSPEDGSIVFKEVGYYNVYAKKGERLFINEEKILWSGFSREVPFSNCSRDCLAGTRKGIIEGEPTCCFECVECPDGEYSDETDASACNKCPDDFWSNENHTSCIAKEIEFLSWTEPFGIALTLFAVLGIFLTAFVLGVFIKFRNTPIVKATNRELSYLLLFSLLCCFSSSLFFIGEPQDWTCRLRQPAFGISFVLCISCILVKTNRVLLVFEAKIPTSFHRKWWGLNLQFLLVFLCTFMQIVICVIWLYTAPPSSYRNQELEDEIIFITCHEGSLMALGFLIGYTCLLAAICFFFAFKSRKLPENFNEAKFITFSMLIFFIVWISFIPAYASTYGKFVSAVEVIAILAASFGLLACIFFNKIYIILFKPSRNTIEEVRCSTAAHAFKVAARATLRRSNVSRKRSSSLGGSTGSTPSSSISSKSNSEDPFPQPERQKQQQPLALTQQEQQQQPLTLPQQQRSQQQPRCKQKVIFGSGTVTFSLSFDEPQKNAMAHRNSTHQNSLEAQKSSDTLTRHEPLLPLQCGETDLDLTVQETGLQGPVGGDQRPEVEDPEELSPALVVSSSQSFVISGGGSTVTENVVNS
Experiment: [Ca2+]i measurement with fluo-3 in HEK 293 4.0-7 cells stably transfected with hPCaR
Assay type: cell-based
Settings: fluo-3 fluorescence (485/530 nm), effect on [Ca^2+]i
In short: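 HEK 293 cells stably expressing human parathyroid Ca2+ receptor (clone 4.0-7), loaded with 2 μM fluo-3 AM for 30 min at 37 °C in parathyroid cell buffer (pH 7.45) with 1 mM CaCl2 and 0.5% BSA. After compound addition, intracellular Ca2+ followed by fluorescence at 485 nm excitation/530 nm emission.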

Compound | pEC50
COc1cccc([C@@H](C)NCc2ccc(OC)c(-c3ccc4ccccc4c3)c2)c1 [(1R)-N-((4-(methyloxy)-3-(2-naphthalenyl)phenyl)methyl)-1-(3-(methyloxy)phenyl)ethanamine] | ≥ 5.00
CCOc1ccc(CN[C@H](C)c2ccccc2)cc1-c1ccc(OC)cc1 [(1R)-N-((6-(ethyloxy)-4′-(methyloxy)-1,1′-biphenyl-3-yl)methyl)-1-phenylethanamine] | ≥ 5.00
COc1ccc(CN[C@@H](C)c2ccccc2)cc1-c1ccc(C(F)(F)F)cc1 [(1S)-N-((6-(methyloxy)-4′-(trifluoromethyl)-1,1′-biphenyl-3-yl)methyl)-1-phenylethanamine] | ≥ 5.00
COc1cccc([C@@H](C)NCc2ccc(OC)c(-c3ccc4nonc4c3)c2)c1 [(1R)-N-((3-(2,1,3-benzoxadiazol-5-yl)-4-(methyloxy)phenyl)methyl)-1-(3-(methyloxy)phenyl)ethanamine] | ≥ 5.00
Cc1ccc([C@@H](C)NCc2cccc(-c3ccccc3F)c2)cc1 [(1R)-N-((2′-fluoro-1,1′-biphenyl-3-yl)methyl)-1-(4-methylphenyl)ethanamine] | ≥ 5.00
C[C@@H](NCc1ccc(C(F)(F)F)c(-c2ccc(C(F)(F)F)cc2)c1)c1cccc2ccccc12 [(1R)-N-((4′,6-bis(trifluoromethyl)-1,1′-biphenyl-3-yl)methyl)-1-(1-naphthalenyl)ethanamine] | ≥ 5.00
